Test results taken from the supplement of paper PMC11061612.

How the values were obtained:
Test in all cases: combination Emax (second highest fraction inhibited in the dose matrix, 72 h); higher = more inhibition; extreme values may be limits of the assay
[1] = test system: NCI-H2023 (Non-Small Cell Lung Carcinoma)
Procedure, shortened: (§1)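 Cell lines in DMEM/F12 or RPMI with 10% FBS were plated in 1536-well plates, held 24 hours at 37°C, 5% CO2, then given two-drug dose matrices for 72 hours (DMSO typically 0.2%). Viability was read by CellTiter-Glo 2.0 luminescence and scaled as inhibition from 0 (vehicle wells) to 1 (blank wells). Combination Emax is the second-highest inhibition in the matrix; Bliss excess is observed combination effect minus expected EA + EB − EA·EB, EA and EB being single-agent effects.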

[2] = test system: NTERA-2-cl-D1 (Other Solid Carcinomas)
Procedure, shortened: as §1

[3] = test system: NCI-H835 (Other Solid Carcinomas)
Procedure, shortened: as §1

NCI-H2452 (Mesothelioma) = test system: NCI-H2452 (Mesothelioma)
Procedure, shortened: as §1

[4] = test system: RPMI-8402 (T-Lymphoblastic Leukemia)
Procedure, shortened: as §1

A375 (Melanoma) = test system: A375 (Melanoma)
Procedure, shortened: as §1

[5] = test system: OVKATE (Ovarian Carcinoma)
Procedure, shortened: as §1

[6] = test system: COR-L105 (Lung Adenocarcinoma)
Procedure, shortened: as §1

[7] = test system: NCI-H2009 (Lung Adenocarcinoma)
Procedure, shortened: as §1

| Compound | combination Emax [1] | combination Emax [2] | combination Emax [3] | combination Emax (NCI-H2452 (Mesothelioma)) | combination Emax [4] | combination Emax (A375 (Melanoma)) | combination Emax [5] | combination Emax [6] | combination Emax [7] |
| --- | --- | --- | --- | --- | --- | --- | --- | --- | --- |
| C[C@@H]1COCCN1c1cc(C2([S@](C)(=N)=O)CC2)nc(-c2ccnc3[nH]ccc23)n1 [AZD6738] + C1CC(C1)(C(=O)[O-])C(=O)[O-].N.N.[Pt+2] [Carboplatin] (first compound max 10 µM, 7x7, partner max 10 µM) | 0.608 | 0.524 | 0.322 | 0.432 | 0.967 | 0.521 | 0.211 | 0.323 | 0.466 |
| C=CCn1c(=O)c2cnc(Nc3ccc(N4CCN(C)CC4)cc3)nc2n1-c1cccc(C(C)(C)O)n1 [AZD1775] + CCc1c2c(nc3ccc(O)cc13)-c1cc3c(c(=O)n1C2)COC(=O)[C@]3(O)CC [SN-38] (first compound max 1 µM, partner max 0.3 µM) | 0.775 | 0.682 | 0.668 | 0.675 | 1 | 0.925 | 0.336 | 0.478 | 0.936 |
| C[C@@H](Nc1cc(F)cc(F)c1)c1cc(C(=O)N(C)C)cc2c(=O)cc(N3CCOCC3)oc12 [AZD8186] + CC(=O)c1c(C)c2cnc(Nc3ccc(N4CCNCC4)cn3)nc2n(C2CCCC2)c1=O [Palbociclib] (first compound max 10 µM, 7x7, partner max 10 µM) | 0.399 | 0.343 | 0.802 | 0.417 | 0.9 | 0.42 | 0.264 | 0.392 | 0.256 |
| Cc1c2c(nn1C)CSCc1cc(n(C)n1)CSc1cc(c3ccccc3c1)OCCCc1c(C(=O)O)n(C)c3c-2c(Cl)ccc13 [AZD5991] + CS(=O)(=O)CCNCc1ccc(-c2ccc3ncnc(Nc4ccc(OCc5cccc(F)c5)c(Cl)c4)c3c2)o1 [Lapatinib] (first compound max 1 µM, 7x7, partner max 10 µM) | 0.284 | 0.487 | 0.332 | 0.414 | 0.955 | 0.318 | 0.307 | 0.688 | 0.237 |
| CC1(C)CCC(CN2CCN(c3ccc(C(=O)NS(=O)(=O)c4ccc(NCC5CCOCC5)c([N+](=O)[O-])c4)c(Oc4cnc5[nH]ccc5c4)c3)CC2)=C(c2ccc(Cl)cc2)C1 [Venetoclax] + CS(=O)(=O)CCNCc1ccc(-c2ccc3ncnc(Nc4ccc(OCc5cccc(F)c5)c(Cl)c4)c3c2)o1 [Lapatinib] (first compound max 1 µM, 7x7, partner max 10 µM) | 0.195 | 0.2 | 0.294 | 0.29 | 0.839 | 0.169 | 0.182 | 0.587 | 0.151 |
| C[C@@H](Oc1cc(-c2cnn(C3CCNCC3)c2)cnc1N)c1c(Cl)ccc(F)c1Cl [Crizotinib] + Cn1cnc2c(F)c(Nc3ccc(Br)cc3Cl)c(C(=O)NOCCO)cc21 [Selumetinib] (first compound max 10 µM, 7x7, partner max 10 µM) | 0.57 | 0.742 | 0.646 | 0.551 | 0.99 | 0.938 | 0.193 | 0.472 | 0.664 |
| C[C@@H]1COCCN1c1cc(C2([S@](C)(=N)=O)CC2)nc(-c2ccnc3[nH]ccc23)n1 [AZD6738] + Nc1ccn([C@@H]2O[C@H](CO)[C@@H](O)C2(F)F)c(=O)n1 [Gemcitabine] (first compound max 10 µM, 7x7, partner max 0.3 µM) | 0.684 | 0.592 | 0.446 | 0.763 | 1 | 0.991 | 0.345 | 0.543 | 0.789 |
| C[C@@H](Oc1cc(-c2cnn(C3CCNCC3)c2)cnc1N)c1c(Cl)ccc(F)c1Cl [Crizotinib] + CC1=C(C(=CC=C1)Cl)NC(=O)C2=CN=C(S2)NC3=CC(=NC(=N3)C)N4CCN(CC4)CCO [Dasatinib] (first compound max 10 µM, 7x7, partner max 2 µM) | 0.607 | 0.956 | 0.854 | 0.744 | 0.971 | 0.502 | 0.572 | 0.481 | 0.88 |
| C[C@@H](Nc1cc(F)cc(F)c1)c1cc(C(=O)N(C)C)cc2c(=O)cc(N3CCOCC3)oc12 [AZD8186] + C1CN(CCC1(C(=O)N[C@@H](CCO)C2=CC=C(C=C2)Cl)N)C3=NC=NC4=C3C=CN4 [AZD5363] (first compound max 10 µM, 7x7, partner max 10 µM) | 0.333 | 0.348 | 0.525 | 0.336 | 0.588 | 0.232 | 0.252 | 0.41 | 0.26 |
